{"source": "patent US10959979B2", "about": "“Small molecules against cancer” (Biokine Therapeutics Ltd., priority 2015, dated 2021)", "key": {"440 kinases": {"tested_on": "440 kinases", "assay": "LanthaScreen europium kinase binding assay, screen of 440 kinases", "design": "species or system human", "description": "(§1) In order to further characterize the effect of BKT300 on cell signaling, kinase profiling of BKT300 (at 78% purity) was performed (by the Life Technologies SelectScreen® Biochemical Profiling Lab) using a LanthaScreen® europium kinase binding assay to screen 440 kinases.\n(§2) The principle of the LanthaScreen® assay is depicted in FIG. 48. Binding of an Alexa Fluor® conjugate or “tracer” to a kinase is detected by addition of a europium (Eu)-labeled anti-tag antibody. Binding of the tracer and antibody to a kinase results in a high degree of FRET, whereas displacement of the tracer with a kinase inhibitor results in a loss of FRET. The kinase tracers are based on ATP-competitive kinase inhibitors, making them suitable for detection of any compounds that bind to the ATP site. Inhibitors that bind the ATP site include both Type I kinase inhibitors, which bind solely to the ATP site, and Type II inhibitors (e.g., imatinib, sorafenib, BIRB-796), which bind to both the ATP site and a second site often referred to as the allosteric site."}, "MLCK (MLCK2)": {"target": "T1, MLCK (MLCK2) (Homo sapiens, UniProt Q32MK0)", "T1 sequence (Q32MK0 1-819)": "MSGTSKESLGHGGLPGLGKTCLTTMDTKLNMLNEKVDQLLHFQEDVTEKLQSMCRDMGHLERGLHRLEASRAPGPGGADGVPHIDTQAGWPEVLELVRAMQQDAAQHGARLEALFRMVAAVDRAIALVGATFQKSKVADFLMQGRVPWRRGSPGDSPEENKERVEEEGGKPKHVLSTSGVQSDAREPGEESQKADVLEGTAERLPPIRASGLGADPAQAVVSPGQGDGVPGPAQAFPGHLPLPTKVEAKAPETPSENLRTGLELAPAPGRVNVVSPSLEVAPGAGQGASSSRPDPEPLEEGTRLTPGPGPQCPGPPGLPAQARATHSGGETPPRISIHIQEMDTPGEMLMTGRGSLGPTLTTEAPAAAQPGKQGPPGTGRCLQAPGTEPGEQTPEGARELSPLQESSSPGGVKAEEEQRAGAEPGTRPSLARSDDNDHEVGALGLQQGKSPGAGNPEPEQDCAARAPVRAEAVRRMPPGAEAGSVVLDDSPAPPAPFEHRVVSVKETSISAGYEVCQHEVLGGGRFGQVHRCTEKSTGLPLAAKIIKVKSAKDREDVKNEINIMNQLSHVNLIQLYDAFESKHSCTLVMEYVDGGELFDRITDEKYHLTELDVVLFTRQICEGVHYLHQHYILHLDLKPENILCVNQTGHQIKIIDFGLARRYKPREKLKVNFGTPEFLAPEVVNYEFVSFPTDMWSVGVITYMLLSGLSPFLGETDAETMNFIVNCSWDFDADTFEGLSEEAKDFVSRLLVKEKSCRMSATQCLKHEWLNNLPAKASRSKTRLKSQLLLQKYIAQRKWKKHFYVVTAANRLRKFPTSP", "assay": "LanthaScreen europium kinase binding assay", "details": "BKT300 at 78% purity", "description": "as §1, §2"}, "MCP-1": {"target": "MCP-1 (Homo sapiens, UniProt P13500)", "sequence (P13500 24-99)": "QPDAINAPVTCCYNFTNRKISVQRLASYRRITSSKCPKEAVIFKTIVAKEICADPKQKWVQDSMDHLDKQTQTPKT", "assay": "Migration of THP-1 cells towards MCP-1 (Transwell migration assay)", "type": "cell-based", "details": "BKT300 at 78% purity", "description": "(§3) 600 μl of RPMI medium was added to the lower chambers of Transwell® transmigration plates, supplemented with 2 μg/ml of MIP3a, 100 ng/ml of SDF-1 or 10 ng/ml of MCP-1. The tested small molecule was added to the lower chambers at the indicated concentration, except in control samples. The MIP3a, SDF-1 or MCP-1 was incubated with the small molecule for 30 minutes at room temperature before the initiation of the migration assay. Following 30 minutes of incubation 2×10^5 immune cells were added to the upper chambers of the transmigration plates in a total volume of 100 μl. Cells which migrated within 3 hours to the bottom chamber of the Transwell® plates were counted using a FACScalibur™ flow cytometer.\nTo evaluate migration towards MCP-1, THP-1 cells were re-suspended in RPMI medium containing 1% fetal calf serum (FCS)."}, "SDF-1": {"target": "SDF-1 (Homo sapiens, UniProt P48061)", "sequence (P48061 22-93)": "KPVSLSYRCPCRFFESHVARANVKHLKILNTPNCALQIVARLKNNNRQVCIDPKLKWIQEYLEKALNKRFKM", "assay": "Migration of Jurkat cells towards SDF-1 (Transwell migration assay)", "type": "cell-based", "details": "for Inhibition of migration of lymphocytic Jurkat cells towards SDF-1: 10 μg/ml", "description": "as §3\nTo evaluate migration towards SDF-1, Jurkat cells were re-suspended in RPMI medium containing 1% fetal calf serum (FCS)."}, "MV4-11 (FLT3-ITD) cells": {"tested_on": "MV4-11 (FLT3-ITD) cells", "assay": "AML cells in vivo: NSG mice transplanted with MV4-11 cells", "design": "species or system NOD scid gamma (NSG) mice", "details": "BKT300 at 98% purity; 1 mg/Kg intraperitoneally for three consecutive days from day 21; day 25; anti human CD45", "description": "The effect of BKT300 (at 98% purity) on the proliferation of AML cells in vivo was examined by treatment of NOD scid gamma (NSG) mice transplanted with MV4-11 (FLT3-ITD) cells.\nThe mice were subjected to irradiation with 300 rad and on the following day were transplanted by IV injection with MV4-11 (FLT3-ITD) cells, 10×10^6 cells/mouse. 21 days following transplantation, the treated group was injected intraperitoneally with 1 mg/Kg of BKT300 (98% purity) per injection for three consecutive days. On day 25 following transplantation, mice were sacrificed and the survival of the human AML blasts in the blood, spleen and the bone marrow was evaluated using anti human CD45."}, "[1]": {"tested_on": "Raji human lymphoma cells", "assay": "Cancer cell viability, FACS with propidium iodide staining", "type": "cell-based", "details": "BKT300 at 78% purity", "description": "(§4) In order to assess the effect of compounds of Table 2 on cancer cell viability, the in vitro effect of the compounds on MV4-11 human acute myeloid leukemia cells was evaluated. The cancer cells were incubated in RPMI cell medium with 1% fetal calf serum (FCS) at a concentration of 2×10^5 cells/well at a final volume of 250 μl in 96-well plate. The compounds were added to the cells at the indicated concentrations. The cells were incubated for 24 hours and the number of dead and viable cells was then evaluated by fluorescence-activated cell sorting (FACS), using propidium iodide (PI) staining.\n(§5) The in vitro effect of BKT300 (at 78% purity) on cancer cell viability was further evaluated using a variety of additional cancer cell lines, using procedures as described hereinabove with respect to MV4-11 cells."}, "[2]": {"tested_on": "Bjab human lymphoma cells", "assay": "Cancer cell viability, FACS with propidium iodide staining", "type": "cell-based", "details": "8.5 μg/ml; BKT300 at 78% purity", "description": "as §4, §5"}, "[3]": {"tested_on": "RPMI human multiple myeloma cells", "assay": "Cancer cell viability, FACS with propidium iodide staining", "type": "cell-based", "details": "BKT300 at 78% purity; concentrations as low as 2 μg/ml (the lowest tested concentration)", "description": "as §4, §5"}, "[4]": {"tested_on": "Jurkat human acute lymphoblastic leukemia cells", "assay": "Cancer cell viability, FACS with propidium iodide staining", "type": "cell-based", "details": "BKT300 at 78% purity", "description": "as §4, §5"}, "[5]": {"tested_on": "H460 human large cell lung cancer cells", "assay": "Cancer cell viability, FACS with propidium iodide staining", "type": "cell-based", "details": "10 μg/ml; BKT300 at 78% purity", "description": "as §4, §5"}, "[6]": {"tested_on": "H345 human small cell lung cancer cells", "assay": "Cancer cell viability, FACS with propidium iodide staining", "type": "cell-based", "details": "8.5 μg/ml; BKT300 at 78% purity", "description": "as §4, §5"}, "[7]": {"tested_on": "MV4-11 human acute myeloid leukemia cells", "assay": "Cancer cell viability, FACS with propidium iodide staining", "type": "cell-based", "description": "as §4"}, "MIP3a": {"target": "MIP3a (Homo sapiens, UniProt P78556)", "sequence (P78556 27-96)": "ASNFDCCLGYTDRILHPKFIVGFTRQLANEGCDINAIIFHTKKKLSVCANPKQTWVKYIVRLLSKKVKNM", "assay": "Migration of CD4+ T-cells toward MIP3a (Transwell migration assay)", "type": "cell-based", "details": "50 μg/ml; BKT300 at 78% purity", "description": "as §3\nTo evaluate migration toward MIP3a, peripheral blood mononuclear cells (PBMCs) were isolated from heparinized venous blood by centrifugation over Ficoll Histopaque® 1077. CD4+ T cells were further isolated with RosetteSep™ human CD4+ T-cell Enrichment cocktail (StemCell Technologies Inc.), according to the manufacturer's instructions. CD4+ T cells were re-suspended in RPMI medium containing 1% fetal calf serum (FCS)."}}}
{"smiles": "CCCCCc1cc2cc(O)cc(Oc3c(O)cc(O)cc3CCCCC)c2c(=O)o1", "note": "[BKT300]", "values": [{"measurement": "Inhibition of 36 of the 440 screened kinases", "setting": "440 kinases; BKT300 at 78% purity", "value": "more than 40%"}, {"measurement": "Affinity of BKT300 to kinases, based on the kinase screening assay", "setting": "440 kinases; estimated from Table 3", "value": "few tens"}, {"measurement": "% Inhibition", "setting": "MLCK (MLCK2)", "value": 58, "unit": "%"}, {"measurement": "Inhibition of migration of monocytic THP-1 cells towards MCP-1", "setting": "MCP-1; 10 μg/ml", "value": "no apparent effect"}, {"measurement": "Inhibition of migration of monocytic THP-1 cells towards MCP-1", "setting": "MCP-1; 50 μg/ml", "value": "strong inhibition"}, {"measurement": "Inhibition of migration of lymphocytic Jurkat cells towards SDF-1", "setting": "SDF-1; BKT300 at 78% purity", "value": "significantly inhibited"}, {"measurement": "Inhibition of migration of lymphocytic Jurkat cells towards SDF-1", "setting": "SDF-1; BKT300 at 98% purity", "value": "significantly inhibited"}, {"measurement": "Selectivity of inhibition of SDF-1 function over MCP-1 and/or MIP3a function", "setting": "SDF-1; at a concentration of about 10 μg/ml", "value": "relatively selective manner"}, {"measurement": "Number and percentage of AML cells in the bone marrow of mice", "setting": "MV4-11 (FLT3-ITD) cells", "value": "dramatically reduced"}, {"measurement": "Cell death of Raji cells", "setting": "[1]; 4.25 μg/ml", "value": "slight cell death"}, {"measurement": "Cell death of Raji cells", "setting": "[1]; 8.5 μg/ml", "value": "about 30%"}, {"measurement": "Cell death of Bjab cells", "setting": "[2]", "value": "about 30%"}, {"measurement": "Cell death of RPMI cells", "setting": "[3]", "value": "induced cell death"}, {"measurement": "Cell death of Jurkat cells", "setting": "[4]; concentrations as low as 2 μg/ml (the lowest tested concentration)", "value": "induced cell death"}, {"measurement": "IC50", "setting": "[4]; Homo sapiens, Jurkat, read-out: IC50 for BKT300-induced death of Jurkat cells", "value": 3.5, "unit": "µg/mL"}, {"measurement": "Cell death of H460 cells", "setting": "[5]", "value": "about 80%"}, {"measurement": "Cell death of H345 cells", "setting": "[6]", "value": "over 90%"}, {"measurement": "Degree of cell death of MV4-11 cells, 98% purity compared with 78% purity", "setting": "[7]; 4.25 μg/ml, BKT300 at 98% purity vs 78% purity", "value": "considerably greater degree of cell death"}, {"measurement": "Cell death of MV4-11 cells", "setting": "[7]; BKT300 at 78% purity, concentrations as low as 2 μg/ml (the lowest tested concentration), 24 hours", "value": "induced cell death"}, {"measurement": "Induction of cell death of MV4-11 cells, 98% purity compared with 78% purity", "setting": "[7]; BKT300 at 98% purity vs BKT300 at 78% purity", "value": "significantly more effective"}, {"measurement": "IC50", "setting": "[7]; Homo sapiens, MV4-11, BKT300 at 78% purity, 24 hours, read-out: IC50 for induced death of MV4-11 cells", "value": 2.72, "unit": "µg/mL"}, {"measurement": "Inhibition of CD4+ T-cell migration towards MIP3a", "setting": "MIP3a", "value": "completely inhibited"}]}
